Our source for the Ki and Kd values is patent US7834044B2, “Substituted-2-imidazoles” (Hoffman-LaRoche Inc., priority 2006, dated 2010).

Structures are written as SMILES.

T1 sequence (Q923Y8 whole entry): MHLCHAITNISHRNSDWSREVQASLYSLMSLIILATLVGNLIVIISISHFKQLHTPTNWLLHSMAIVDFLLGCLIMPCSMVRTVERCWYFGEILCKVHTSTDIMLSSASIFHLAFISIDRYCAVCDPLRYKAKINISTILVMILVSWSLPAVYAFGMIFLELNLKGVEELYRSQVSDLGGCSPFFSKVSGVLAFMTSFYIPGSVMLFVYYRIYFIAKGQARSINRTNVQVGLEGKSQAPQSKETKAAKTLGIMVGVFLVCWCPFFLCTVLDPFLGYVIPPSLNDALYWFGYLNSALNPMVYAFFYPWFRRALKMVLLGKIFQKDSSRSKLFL

One experiment has as its target T1, TAAR1 (Mus musculus, UniProt Q923Y8).
T1 construct: expressed in transfected cells; host or cells: HEK293 (ATCC # CRL-1573), stably transfected with pIRESneo2 expression plasmid; membranes prepared
In words: TAAR1 radioligand binding assay on membranes of stably transfected HEK293 cells.
Details: not given
As to the method: The ability of the compounds of the present invention to bind to TAAR 1 was investigated in accordance with the test given hereinafter.
The Expand High Fidelity PCR System (Roche Diagnostics) was used with 1.5 mM Mg^2+ and purified PCR products were cloned into pCR2.1-TOPO cloning vector (Invitrogen) following the instructions of the manufacturer. PCR products were subcloned into the pIRESneo2 vector (BD Clontech, Palo Alto, Calif.), and expression vectors were sequence verified before introduction in cell lines.
For the generation of stably transfected cell lines HEK293 cells were transfected with the pIRESneo2 expression plasmids containing the TAAR coding sequences (described above) with Lipofectamine 2000 (Invitrogen) according to the instructions of the manufacturer, and 24 hours post transfection the culture medium was supplemented with 1 mg/ml G418 (Sigma, Buchs, Switzerland). After a culture period of about 10 days, clones were isolated, expanded and tested for responsiveness to trace amines (all compounds purchased from Sigma) with the cAMP Biotrak Enzyme immunoassay (EIA) System (Amersham) following the non-acetylation EIA procedure provided by the manufacturer.
Cells at confluence were rinsed with ice-cold phosphate buffered saline without Ca^2+ and Mg^2+ containing 10 mM EDTA and pelleted by centrifugation at 1000 rpm for 5 min at 4° C. The pellet was then washed twice with ice-cold phosphate buffered saline and cell pellet was frozen immediately by immersion in liquid nitrogen and stored until use at −80° C. The cell pellet was then suspended in 20 ml HEPES-NaOH (20 mM), pH 7.4 containing 10 mM EDTA, and homogenized with a Polytron (PT 3000, Kinematica) at 10,000 rpm for 10 seconds. The homogenate was centrifuged at 48,000×g for 30 minutes at 4° C. and the pellet resuspended in 20 ml HEPES-NaOH (20 mM), pH 7.4 containing 0.1 mM EDTA (buffer A), and homogenized with a Polytron at 10,000 rpm for 10 seconds. The homogenate was then centrifuged at 48,000×g for 30 minutes at 4° C. and the pellet resuspended in 20 ml buffer A, and homogenized with a Polytron at 10,000 rpm for 10 seconds. Protein concentration was determined by the method of Pierce (Rockford, Ill.). The homogenate was then centrifuged at 48,000×g for 10 minutes at 4° C., resuspended in HEPES-NaOH (20 mM), pH 7.0 including MgCl2 (10 mM) and CaCl2 ([…]) (buffer B) at 200 μg protein per ml and homogenized with a Polytron at 10,000 rpm for 10 seconds.
Binding assay was performed at 4° C. in a final volume of 1 ml, and with an incubation time of 30 minutes. […] Non-specific binding was defined as the amount of [^3H]-rac-2-(1,2,3,4-tetrahydro-1-naphthyl)-2-imidazoline bound in the presence of the appropriate unlabelled ligand (10 μM). Competing ligands were tested in a wide range of concentrations (10 pM-30 μM). […] Each experiment was performed in duplicate. All incubations were terminated by rapid filtration through UniFilter-96 plates (Packard Instrument Company) and glass filter GF/C, pre-soaked for at least 2 h in polyethylenimine 0.3%, and using a Filtermate 96 Cell Harvester (Packard Instrument Company). The tubes and filters were then washed 3 times with 1 ml aliquots of cold buffer B. Filters were not dried and soaked in Ultima gold (45 μl/well, Packard Instrument Company) and bound radioactivity was counted by a TopCount Microplate Scintillation Counter (Packard Instrument Company).
Usually Ki stands for the equilibrium dissociation constant of an inhibitor or competing ligand from its target. As to `C[C@@H]1c2ccccc2N(Cc2ncc[nH]2)[C@@H]1C` (racemic) [Example 14, (2RS,3RS)-1-(1H-Imidazol-2-ylmethyl)-2,3-dimethyl-2,3-dihydro-1H-indole], the Ki was determined as 0.196 µM.

In turn, `c1ccc2c(c1)CCN2Cc1ncc[nH]1` [Example 1, 1-(1H-Imidazol-2-ylmethyl)-2,3-dihydro-1H-indole] came in with a Ki of 0.0289 µM.

`Brc1ccc2c(c1)CCN2Cc1ncc[nH]1` [Example 4, 5-Bromo-1-(1H-imidazol-2-ylmethyl)-2,3-dihydro-1H-indole] returned a Ki of 0.055 µM.

On to `CCc1cccc2c1N(Cc1ncc[nH]1)CC2` [Example 15, 7-Ethyl-1-(1H-imidazol-2-ylmethyl)-2,3-dihydro-1H-indole], for which affinity was put at a Ki of 0.0435 µM.

Take `Clc1ccc2c(c1)N(Cc1ncc[nH]1)CC2` [Example 16, 6-Chloro-1-(1H-imidazol-2-ylmethyl)-2,3-dihydro-1H-indole]: the affinity, expressed as Ki, was 0.035 µM. In turn, `Clc1cccc2c1CCN2Cc1ncc[nH]1` [Example 17, 4-Chloro-1-(1H-imidazol-2-ylmethyl)-2,3-dihydro-1H-indole] came in with a Ki of 0.0362 µM. Take `COc1cccc2c1N(Cc1ncc[nH]1)CC2` [Example 20, 1-(1H-Imidazol-2-ylmethyl)-7-methoxy-2,3-dihydro-1H-indole]: the Ki was found to be 0.118 µM. Consider `COc1cccc2c1CCN2Cc1ncc[nH]1` [Example 23, 1-(1H-Imidazol-2-ylmethyl)-4-methoxy-2,3-dihydro-1H-indole], for which the inhibition constant Ki stood at 0.115 µM.

`Cc1cccc2c1N(Cc1ncc[nH]1)CC2` [Example 32, 1-(1H-Imidazol-2-ylmethyl)-7-methyl-2,3-dihydro-1H-indole] displayed a Ki of 0.173 µM. Regarding `Cc1cccc2c1CCN2Cc1ncc[nH]1` [Example 33, 1-(1H-Imidazol-2-ylmethyl)-4-methyl-2,3-dihydro-1H-indole], the affinity, expressed as Ki, was 0.125 µM.

As for `c1ccc(Oc2cccc3c2CCCN3Cc2ncc[nH]2)cc1` [Example 42, 1-(1H-Imidazol-2-ylmethyl)-5-phenoxy-1,2,3,4-tetrahydro-quinoline], the Ki was 0.0046 µM.

The same experiment, now with this note: mouse TAAR1; radioligand [3H]-rac-2-(1,2,3,4-tetrahydro-1-naphthyl)-2-imidazoline at 60 nM; 4° C., 30 minutes; read-out: Ki (μM) mouse.
Turning to `Clc1cccc2c1N(Cc1ncc[nH]1)CC2` [Example 24, 7-Chloro-1-(1H-imidazol-2-ylmethyl)-2,3-dihydro-1H-indole], the Ki came out at 0.0557 µM. `Brc1ccc2c(c1)CCCN2Cc1ncc[nH]1` [Example 25, 6-Bromo-1-(H-imidazol-2-ylmethyl)-1,2,3,4-tetrahydro-quinoline]: the Ki came to 0.0951 µM.

`Cc1ccc2c(c1)N(Cc1ncc[nH]1)CC2` [Example 26, 1-(1H-Imidazol-2-ylmethyl)-6-methyl-2,3-dihydro-1H-indole]: the Ki was found to be 0.129 µM. Same read-out and setting: as for `c1ccc(COc2cccc3c2CCCN3Cc2ncc[nH]2)cc1` [Example 38, 5-Benzyloxy-1-(1H-imidazol-2-ylmethyl)-1,2,3,4-tetrahydro-quinoline], the figure is 0.0513 µM.

Still in this experiment, the particulars now being: radioligand binding to TAAR1 membranes; species not stated; read-out: calculated Kd value of the radioligand.
Broadly, the Kd is the equilibrium constant for the complex coming apart. Regarding `c1ccc2c(c1)CCCC2C1=NCCN1` (racemic) [[^3H]-rac-2-(1,2,3,4-tetrahydro-1-naphthyl)-2-imidazoline, reference compound], the Kd is 60 nM.
